biological target: T1, human GPBAR1 receptor (Homo sapiens, UniProt Q8TDU6); assay: functional cAMP assay in CHO-dhfr(minus) cells expressing human GPBAR1 receptors; format: cell-based; settings: cAMP increase (TR-FRET) in CHO-dhfr(minus) cells expressing human GPBAR1; compounds incubated 30 min at 30° C.
T1 construct: expressed in transfected cells
T1 sequence (Q8TDU6 1-330): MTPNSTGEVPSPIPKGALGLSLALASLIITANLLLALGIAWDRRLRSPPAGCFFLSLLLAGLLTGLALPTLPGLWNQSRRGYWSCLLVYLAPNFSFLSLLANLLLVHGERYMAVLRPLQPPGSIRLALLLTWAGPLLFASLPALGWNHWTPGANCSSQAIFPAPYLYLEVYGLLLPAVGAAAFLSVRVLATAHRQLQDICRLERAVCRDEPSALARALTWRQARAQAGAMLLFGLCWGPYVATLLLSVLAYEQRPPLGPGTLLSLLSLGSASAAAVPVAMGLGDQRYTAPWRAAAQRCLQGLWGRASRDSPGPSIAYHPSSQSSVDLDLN
Procedure: The final clone was verified by DNA sequence analysis. The plasmid was transfected into CHO cells deficient in dihydrofolate reductase activity (CHO-dhfr-) using Lipofectamine plus (Invitrogen). Clones were isolated in limited dilution conditions and identified by activities in the cAMP assay using lithocholic acid as agonist.
The growth medium was exchanged with Krebs Ringer Bicarbonate buffer with 1 mM IBMX and incubated at 30° C. for 30 mM. Compounds were added to a final assay volume of 100 μl and incubated for 30 min at 30° C. […] The time-resolved energy transfer is measured by a TRF reader (Evotec Technologies GmbH, Hamburg Germany), equipped with a ND:YAG laser as excitation source. The plate is measured twice with the excitation at 355 nm and at the emission with a delay of 100 ns and a gate of 100 ns, total exposure time 10s at 730 (bandwith 30 nm) or 645 nm (bandwith 75 nm), respectively.
EC50 values were determined using Activity Base analysis (ID Business Solution, Limited). […] Specificity for GPBAR1 was tested in non-transfected CHO cells in the same assay as above.

Q: `CN(C(=O)c1cccnc1Oc1cc(Cl)ccc1Cl)c1ccccc1Cl` [Example 40, N-(2-Chloro-phenyl)-2-(2,5-dichloro-phenoxy)-N-methyl-nicotinamide] was tested. Which EC50 did it give?
A: 103 nM

Q: Which EC50 does the source give for `Cc1ccccc1N(C)C(=O)c1cccnc1Oc1cc(Cl)ccc1Cl` [Example 41, 2-(2,5-Dichloro-phenoxy)-N-methyl-N-o-tolyl-nicotinamide] here?
A: 33 nM

Q: How did the EC50 turn out when `COc1ccccc1N(C)C(=O)c1cccnc1Oc1cc(Cl)ccc1Cl` [Example 42, 2-(2,5-Dichloro-phenoxy)-N-(2-methoxy-phenyl)-N-methyl-nicotinamide] was run?
A: 20 nM

Q: For `CN(C(=O)c1cccnc1Oc1cc(Cl)ccc1Cl)c1ccccc1-c1ccccc1` [Example 43, N-Biphenyl-2-yl-2-(2,5-dichloro-phenoxy)-N-methyl-nicotinamide], which EC50 is on record?
A: 496 nM

Q: `O=C(c1cccnc1Oc1cc(Cl)ccc1Cl)N1CCCc2cc(F)cc(F)c21` [Example 44, [2-(2,5-Dichloro-phenoxy)-pyridin-3-yl]-(6,8-difluoro-3,4-dihydro-2H-quinolin-1-yl)-methanone] was tested. Which EC50 did it give?
A: 44 nM

Q: Which EC50 does the source give for `CCc1ccccc1N(C)C(=O)c1cccnc1Oc1cc(Cl)ccc1Cl` [Example 45, 2-(2,5-Dichloro-phenoxy)-N-(2-ethyl-phenyl)-N-methyl-nicotinamide] here?
A: 92 nM

Q: How did the EC50 turn out when `CN(C(=O)c1cccnc1Oc1cc(Cl)ccc1Cl)c1ncccc1Cl` [Example 46, N-(3-Chloro-pyridin-2-yl)-2-(2,5-dichloro-phenoxy)-N-methyl-nicotinamide] was run?
A: 905 nM

Q: With `CN(C(=O)c1cccnc1Oc1cc(Cl)ccc1Cl)c1cnccc1Cl` [Example 47, N-(4-Chloro-pyridin-3-yl)-2-(2,5-dichloro-phenoxy)-N-methyl-nicotinamide] as the molecule, how does the EC50 read?
A: 1250 nM

Q: `COc1ncccc1N(C)C(=O)c1cccnc1Oc1cc(Cl)ccc1Cl` [Example 48, 2-(2,5-Dichloro-phenoxy)-N-(2-methoxy-pyridin-3-yl)-N-methyl-nicotinamide] was tested. Which EC50 did it give?
A: 66 nM

Q: Which EC50 does the source give for `Cc1c(Cl)cccc1N(C)C(=O)c1cccnc1Oc1cc(Cl)ccc1Cl` [Example 49, N-(3-Chloro-2-methyl-phenyl)-2-(2,5-dichloro-phenoxy)-N-methyl-nicotinamide] here?
A: 173 nM

Q: With `Cc1ccc(Cl)cc1N(C)C(=O)c1cccnc1Oc1cc(Cl)ccc1Cl` [Example 50, N-(5-Chloro-2-methyl-phenyl)-2-(2,5-dichloro-phenoxy)-N-methyl-nicotinamide] as the molecule, how does the EC50 read?
A: 631 nM

Q: With `Cc1cccc(Cl)c1N(C)C(=O)c1cccnc1Oc1cc(Cl)ccc1Cl` [Example 51, N-(2-Chloro-6-methyl-phenyl)-2-(2,5-dichloro-phenoxy)-N-methyl-nicotinamide] as the molecule, how does the EC50 read?
A: 59 nM

Q: `Cc1cccc(C)c1N(C)C(=O)c1cccnc1Oc1cc(Cl)ccc1Cl` [Example 52, 2-(2,5-Dichloro-phenoxy)-N-(2,6-dimethyl-phenyl)-N-methyl-nicotinamide] was tested. Which EC50 did it give?
A: 116 nM

Q: For `COc1cccc(C)c1N(C)C(=O)c1cccnc1Oc1cc(Cl)ccc1Cl` [Example 53, 2-(2,5-Dichloro-phenoxy)-N-(2-methoxy-6-methyl-phenyl)-N-methyl-nicotinamide], which EC50 is on record?
A: 321 nM

Q: With `COc1ccc(F)cc1N(C)C(=O)c1cccnc1Oc1cc(Cl)ccc1Cl` [Example 54, 2-(2,5-Dichloro-phenoxy)-N-(5-fluoro-2-methoxy-phenyl)-N-methyl-nicotinamide] as the molecule, how does the EC50 read?
A: 35 nM

Q: `COc1ccc(Cl)cc1N(C)C(=O)c1cccnc1Oc1cc(Cl)ccc1Cl` [Example 55, N-(5-Chloro-2-methoxy-phenyl)-2-(2,5-dichloro-phenoxy)-N-methyl-nicotinamide] was tested. Which EC50 did it give?
A: 641 nM

Q: Which EC50 does the source give for `Cc1cc(Cl)ccc1N(C)C(=O)c1cccnc1Oc1cc(Cl)ccc1Cl` [Example 56, N-(4-Chloro-2-methyl-phenyl)-2-(2,5-dichloro-phenoxy)-N-methyl-nicotinamide] here?
A: 1390 nM

Q: `Cc1cccc(N(C)C(=O)c2cccnc2Oc2cc(Cl)ccc2Cl)c1C` [Example 57, 2-(2,5-Dichloro-phenoxy)-N-(2,3-dimethyl-phenyl)-N-methyl-nicotinamide] was tested. Which EC50 did it give?
A: 385 nM

Q: `Cc1ccc(N(C)C(=O)c2cccnc2Oc2cc(Cl)ccc2Cl)c(C)c1` [Example 58, 2-(2,5-Dichloro-phenoxy)-N-(2,4-dimethyl-phenyl)-N-methyl-nicotinamide] was tested. Which EC50 did it give?
A: 758 nM

Q: With `COc1ccc(C)cc1N(C)C(=O)c1cccnc1Oc1cc(Cl)ccc1Cl` [Example 59, 2-(2,5-Dichloro-phenoxy)-N-(2-methoxy-5-methyl-phenyl)-N-methyl-nicotinamide] as the molecule, how does the EC50 read?
A: 1550 nM

Q: For `COc1cccc(OC)c1N(C)C(=O)c1cccnc1Oc1cc(Cl)ccc1Cl` [Example 60, 2-(2,5-Dichloro-phenoxy)-N-(2,6-dimethoxy-phenyl)-N-methyl-nicotinamide], which EC50 is on record?
A: 1550 nM

Q: Which EC50 does the source give for `Cc1cc(Cl)ncc1N(C)C(=O)c1cccnc1Oc1cc(Cl)ccc1Cl` [Example 61, N-(6-Chloro-4-methyl-pyridin-3-yl)-2-(2,5-dichloro-phenoxy)-N-methyl-nicotinamide] here?
A: 1980 nM

Q: How did the EC50 turn out when `CN(C(=O)c1cccnc1Oc1cc(Cl)ccc1Cl)c1ccccc1C#N` [Example 62, N-(2-Cyano-phenyl)-2-(2,5-dichloro-phenoxy)-N-methyl-nicotinamide] was run?
A: 820 nM

Q: For `CN(C(=O)c1cccnc1Oc1cc(Cl)ccc1Cl)c1ccccc1F` [Example 63, 2-(2,5-Dichloro-phenoxy)-N-(2-fluoro-phenyl)-N-methyl-nicotinamide], which EC50 is on record?
A: 170 nM

Q: How did the EC50 turn out when `CN(C(=O)c1cccnc1Oc1cc(Cl)ccc1Cl)c1c(F)cccc1F` [Example 64, 2-(2,5-Dichloro-phenoxy)-N-(2,6-difluoro-phenyl)-N-methyl-nicotinamide] was run?
A: 155 nM

Q: With `CN(C(=O)c1cccnc1Oc1cc(Cl)ccc1Cl)c1ccccc1-n1cccc1` [Example 65, 2-(2,5-Dichloro-phenoxy)-N-methyl-N-(2-pyrrol-1-yl-phenyl)-nicotinamide] as the molecule, how does the EC50 read?
A: 357 nM

Q: `CN(C(=O)c1cccnc1Oc1cc(Cl)ccc1Cl)c1ccc(F)cc1F` [Example 66, 2-(2,5-Dichloro-phenoxy)-N-(2,4-difluoro-phenyl)-N-methyl-nicotinamide] was tested. Which EC50 did it give?
A: 518 nM

Q: `CC1CCc2ccccc2N1C(=O)c1cccnc1Oc1cc(Cl)ccc1Cl` (stereo not drawn) [Example 67, [2-(2,5-Dichloro-phenoxy)-pyridin-3-yl]-(2-methyl-3,4-dihydro-2H-quinolin-1-yl)-methanone] was tested. Which EC50 did it give?
A: 1690 nM

Q: Which EC50 does the source give for `Cc1cc(F)c2c(c1)CCCN2C(=O)c1cccnc1Oc1cc(Cl)ccc1Cl` [Example 68, [2-(2,5-Dichloro-phenoxy)-pyridin-3-yl]-(8-fluoro-6-methyl-3,4-dihydro-2H-quinolin-1-yl)-methanone] here?
A: 837 nM

Q: For `Cc1ccnc(Cl)c1N(C)C(=O)c1cccnc1Oc1cc(Cl)ccc1Cl` [Example 69, N-(2-Chloro-4-methyl-pyridin-3-yl)-2-(2,5-dichloro-phenoxy)-N-methyl-nicotinamide], which EC50 is on record?
A: 566 nM

Q: With `COc1cccc2c1N(C(=O)c1cccnc1Oc1cc(Cl)ccc1Cl)CCC2` [Example 70, [2-(2,5-Dichloro-phenoxy)-pyridin-3-yl]-(8-methoxy-3,4-dihydro-2H-quinolin-1-yl)-methanone] as the molecule, how does the EC50 read?
A: 561 nM

Q: How did the EC50 turn out when `O=C(c1cccnc1Oc1cc(Cl)ccc1Cl)N1CCCc2cc(Cl)ccc21` [Example 71, (6-Chloro-3,4-dihydro-2H-quinolin-1-yl)-[2-(2,5-dichloro-phenoxy)-pyridin-3-yl]-methanone] was run?
A: 436 nM

Q: Which EC50 does the source give for `O=C(c1cccnc1Oc1cc(Cl)ccc1Cl)N1CCOc2ccc(F)cc21` [Example 72, [2-(2,5-Dichloro-phenoxy)-pyridin-3-yl]-(6-fluoro-2,3-dihydro-benzo[1,4]oxazin-4-yl)-methanone] here?
A: 163 nM

Q: How did the EC50 turn out when `O=C(c1cccnc1Oc1cc(Cl)ccc1Cl)N1CCOc2c(F)cc(F)cc21` [Example 73, [2-(2,5-Dichloro-phenoxy)-pyridin-3-yl]-(6,8-difluoro-2,3-dihydro-benzo[1,4]oxazin-4-yl)-methanone] was run?
A: 418 nM

Q: How did the EC50 turn out when `O=C(c1cccnc1Oc1cc(Cl)ccc1Cl)N1CCN(c2ccccc2)c2ccccc21` [Example 74, [2-(2,5-Dichloro-phenoxy)-pyridin-3-yl]-(4-phenyl-3,4-dihydro-2H-quinoxalin-1-yl)-methanone] was run?
A: 1530 nM

Q: `COc1ccncc1N(C)C(=O)c1cccnc1Oc1cc(Cl)ccc1Cl` [Example 75, 2-(2,5-Dichloro-phenoxy)-N-(4-methoxy-pyridin-3-yl)-N-methyl-nicotinamide] was tested. Which EC50 did it give?
A: 1580 nM

Q: `O=C(c1cccnc1Oc1ccc(Cl)cc1Cl)N1CCCc2ccccc21` [Example 76, [2-(2,4-Dichloro-phenoxy)-pyridin-3-yl]-(3,4-dihydro-2H-quinolin-1-yl)-methanone] was tested. Which EC50 did it give?
A: 1960 nM

Q: `Cc1ccc2c(c1)CCCN2C(=O)c1cccnc1Oc1ccc(F)c(Cl)c1` [Example 77, [2-(3-Chloro-4-fluoro-phenoxy)-pyridin-3-yl]-(6-methyl-3,4-dihydro-2H-quinolin-1-yl)-methanone] was tested. Which EC50 did it give?
A: 765 nM

Q: `O=C(c1cccnc1Oc1ccc(F)c(Cl)c1)N1CCCc2ncccc21` [Example 78, [2-(3-Chloro-4-fluoro-phenoxy)-pyridin-3-yl]-(3,4-dihydro-2H-[1,5]naphthyridin-1-yl)-methanone] was tested. Which EC50 did it give?
A: 128 nM

— patent publication US8309734B2 (Hoffmann-La Roche Inc., priority 2008, dated 2012)
